Experimental data taken from patent publication US20100210649A1, “PYRIDAZINONES AND FURAN-CONTAINING COMPOUNDS” (Sloan-Kettering Institute for Cancer Research, priority 2006, published 2010).
Like-named read-outs stand apart in the source and are kept apart here.

Experiments:
Format in all cases: cell-based, human
Conditions in all cases: Homo sapiens
H1650 = experiment: Non Small Cell Lung Cancer proliferation assay (Alamar Blue reduction), H1650
Method: (§1) These cells have a doubling time of 1-2 days. All cell types are adherent and grow in colonies. The cells should be kept at a density between 50,000 cells/mL -500,000 cells/mL to provide for optimum growth and adequate nutrition. The cell line should be maintained at 37° C. in a humidified atmosphere with 5% CO2 in a sterile cell culture incubator.
(§2) Non Small Cell Lung Cancer Proliferation Assay.
(§3) High Controls for this assay are made by treating Non Small Cell Lung Cancer cells with 5 ul of 10% DMSO. [Final concentration in this assay is 1% DMSO].
(§4) Important Note: All compounds for testing in this assay should be done at the final concentration of 1% DMSO.
(§5) After addition, the cells are placed in cell culture incubator at 37° C. for 48 hours for complete treatment.
(§6) After drug treatment, cytotoxicity is measured by Alamar Blue reduction.
(§7) The cells are incubated for 48 hours at 37° C. to complete the Alamar Blue reduction.
(§8) The final step in the assay is to measure the amount of Alamar Blue reduction. […] The Alamar Blue fluorescence is measured at an excitation of 530 nm and emission of 590 nm.
(§9) For the NSCLC project, the cell based assay was screened against a small molecule library of approximately 200,000 compounds. The compound library is stored in our automated robotic freezer (Biophile) at −20° C. in 100% DMSO. Compound freeze and thaw cycles are kept to a minimum. […] This assay was performed on a fully automated linear track robotic platform (CRS F3 Robot System, Thermo Electron Corp., Ontario, Canada) utilizing several integrated peripherals for plate handling, liquid dispensing, and readout detection. […] The microplates are then placed at 37° C. for 48 hours to complete treatment of cells with compounds. Next, 5 ul of alamar blue was added using a liquid dispenser (Flexprop Precision Dispenser, Perkin Elmer, Mass., USA) and incubated for 48 hours at 37° C. The alamar blue prompt fluorescence was measured on Victor V (Victor^3 V, Perkin Elmer, Mass., USA) and output data files were loaded into ORIS (Oncology Research Informatics System, MSKCC, NY, USA), a screening data acquisition and analysis platform.
(§10) The dose response studies were done with the following standard procedure. First, the cells were counted and dispensed at 250 cells/well into 384-well microplates with compound. The cells were incubated for 48 hours at 37 C to complete treatment, and then alamar blue was added for an additional 48 hours. Finally, alamar blue reduction was measured and the data was loaded into ORIS, our data screening acquisition platform.

H1975 = experiment: Non Small Cell Lung Cancer proliferation assay (Alamar Blue reduction), H1975
Method: as §1, §2, §3, §4, §5, §6, §7, §8, §9, §10

H2030 = experiment: Non Small Cell Lung Cancer proliferation assay (Alamar Blue reduction), H2030
Method: as §1, §2, §3, §4, §5, §6, §7, §8, §9, §10

H3255 = experiment: Non Small Cell Lung Cancer proliferation assay (Alamar Blue reduction), H3255
Method: as §1, §2, §3, §4, §5, §6, §7, §8, §9, §10

[1] = NCI-H1650, primary screening, H1650, 10 μM compound in 1% DMSO (v/v), read-out: PRIMARY HTS [%] H1650 (percentage inhibition)
[2] = NCI-H1975, primary screening, H1975, 10 μM compound in 1% DMSO (v/v), read-out: PRIMARY HTS [%] H1975 (percentage inhibition)
[3] = NCI-H2030, primary screening, H2030, 10 μM compound in 1% DMSO (v/v), read-out: PRIMARY HTS [%] H2030 (percentage inhibition)
[4] = NCI-H3255, primary screening, H3255, 10 μM compound in 1% DMSO (v/v), read-out: PRIMARY HTS [%] H3255 (percentage inhibition)

**Q.** With `CC(C)(C)NC(=O)c1ccc(NC(=O)c2ccco2)cc1` [compound 91753] as the compound, how does the inhibition at 10 µM (H1650; [1]) read?
**A.** -3%

**Q.** What about the inhibition at 10 µM (H1975; [2]) of the same compound?
**A.** -22%

**Q.** And the inhibition at 10 µM (H2030; [3])?
**A.** -5%

**Q.** What about the inhibition at 10 µM (H3255; [4]) of the same compound?
**A.** -1%

**Q.** Which results are given for `O=C(Nc1ccc(N2CCN(Cc3ccccc3Cl)CC2)cc1)c1ccco1` [compound 92553]?
**A.** inhibition at 10 µM (H1650; [1]): 2%; inhibition at 10 µM (H1975; [2]): -3%; inhibition at 10 µM (H2030; [3]): 5%; inhibition at 10 µM (H3255; [4]): 1%

**Q.** For `O=C(Nc1ccc(N2CCN(Cc3ccccc3)CC2)cc1)c1ccco1` [compound 93911], which inhibition at 10 µM (H1650; [1]) is on record?
**A.** -4%

**Q.** And the inhibition at 10 µM (H1975; [2])?
**A.** -22%

**Q.** What about the inhibition at 10 µM (H2030; [3]) of the same compound?
**A.** -3%

**Q.** What about the inhibition at 10 µM (H3255; [4]) of the same compound?
**A.** -1%

**Q.** Which results are given for `Cc1ccc(C(=O)N2CCN(c3ccc(NC(=O)c4ccco4)cc3)CC2)cc1` [compound 95436]?
**A.** inhibition at 10 µM (H1650; [1]): 2%; inhibition at 10 µM (H1975; [2]): -12%; inhibition at 10 µM (H2030; [3]): 2%; inhibition at 10 µM (H3255; [4]): -3%

**Q.** With `Cc1ccc(C(=O)Nc2ccc(NC(=O)c3ccco3)cc2)c(C)c1` [compound 97216] as the compound, how does the inhibition at 10 µM (H1650; [1]) read?
**A.** -1%

**Q.** And the inhibition at 10 µM (H1975; [2])?
**A.** -4%

**Q.** What about the inhibition at 10 µM (H2030; [3]) of the same compound?
**A.** -4%

**Q.** And the inhibition at 10 µM (H3255; [4])?
**A.** 3%

**Q.** For `O=C(Nc1ccc(N2CCN(C(=O)c3ccco3)CC2)cc1)c1ccco1` [compound 97253], which inhibition at 10 µM (H1650; [1]) is on record?
**A.** -2%

**Q.** What about the inhibition at 10 µM (H1975; [2]) of the same compound?
**A.** -15%

**Q.** What about the inhibition at 10 µM (H2030; [3]) of the same compound?
**A.** -5%

**Q.** What about the inhibition at 10 µM (H3255; [4]) of the same compound?
**A.** -3%

**Q.** For `O=C(c1ccc([N+](=O)[O-])o1)N(c1ccccc1)c1ccccc1` [compound 98705], which inhibition at 10 µM (H1650; [1]) is on record?
**A.** -8%

**Q.** And the inhibition at 10 µM (H1975; [2])?
**A.** 14%

**Q.** And the inhibition at 10 µM (H2030; [3])?
**A.** 8%

**Q.** And the inhibition at 10 µM (H3255; [4])?
**A.** 9%

**Q.** Which inhibition at 10 µM (H1650; [1]) does the source give for `O=C(c1ccc([N+](=O)[O-])o1)N1CCc2ccccc21` [compound 100403] here?
**A.** -13%

**Q.** And the inhibition at 10 µM (H1975; [2])?
**A.** -13%

**Q.** What about the inhibition at 10 µM (H2030; [3]) of the same compound?
**A.** 3%

**Q.** And the inhibition at 10 µM (H3255; [4])?
**A.** 2%

**Q.** With `O=[N+]([O-])c1ccc(CN2CCN(c3ccccc3)CC2)o1` [compound 100483] as the compound, how does the inhibition at 10 µM (H1650; [1]) read?
**A.** -1%

**Q.** What about the inhibition at 10 µM (H1975; [2]) of the same compound?
**A.** -8%

**Q.** What about the inhibition at 10 µM (H2030; [3]) of the same compound?
**A.** -1%

**Q.** And the inhibition at 10 µM (H3255; [4])?
**A.** 1%

**Q.** With `O=[N+]([O-])c1ccc(CN2CCN(Cc3ccccc3)CC2)o1` [compound 100507] as the compound, how does the inhibition at 10 µM (H1650; [1]) read?
**A.** -3%

**Q.** What about the inhibition at 10 µM (H1975; [2]) of the same compound?
**A.** -15%

**Q.** What about the inhibition at 10 µM (H2030; [3]) of the same compound?
**A.** 7%

**Q.** And the inhibition at 10 µM (H3255; [4])?
**A.** 1%

**Q.** For `COc1ccc(N2CCN(Cc3ccc([N+](=O)[O-])o3)CC2)cc1` [compound 100588], which inhibition at 10 µM (H1650; [1]) is on record?
**A.** -5%

**Q.** What about the inhibition at 10 µM (H1975; [2]) of the same compound?
**A.** -14%

**Q.** What about the inhibition at 10 µM (H2030; [3]) of the same compound?
**A.** 5%

**Q.** And the inhibition at 10 µM (H3255; [4])?
**A.** 4%

**Q.** With `CN1CCN(Cc2ccc([N+](=O)[O-])o2)CC1` [compound 100652] as the compound, how does the inhibition at 10 µM (H1650; [1]) read?
**A.** -12%

**Q.** And the inhibition at 10 µM (H1975; [2])?
**A.** -2%

**Q.** And the inhibition at 10 µM (H2030; [3])?
**A.** -6%

**Q.** And the inhibition at 10 µM (H3255; [4])?
**A.** -3%

**Q.** For `O=[N+]([O-])c1ccc(CN2CCN(c3ccccc3F)CC2)o1` [compound 100792], which inhibition at 10 µM (H1650; [1]) is on record?
**A.** -5%

**Q.** What about the inhibition at 10 µM (H1975; [2]) of the same compound?
**A.** -9%

**Q.** And the inhibition at 10 µM (H2030; [3])?
**A.** 43%

**Q.** What about the inhibition at 10 µM (H3255; [4]) of the same compound?
**A.** 1%

**Q.** What does the source list for `Cc1cccc(N2CCN(Cc3ccc([N+](=O)[O-])o3)CC2)c1C` [compound 101070]?
**A.** inhibition at 10 µM (H1650; [1]): 2%; inhibition at 10 µM (H1975; [2]): -18%; inhibition at 10 µM (H2030; [3]): 5%; inhibition at 10 µM (H3255; [4]): 1%

**Q.** For `O=C(Nc1ccc(-c2ccc([N+](=O)[O-])cc2)cc1)c1ccco1` [compound 102031], which inhibition at 10 µM (H1650; [1]) is on record?
**A.** -2%

**Q.** And the inhibition at 10 µM (H1975; [2])?
**A.** -11%

**Q.** What about the inhibition at 10 µM (H2030; [3]) of the same compound?
**A.** -1%

**Q.** What about the inhibition at 10 µM (H3255; [4]) of the same compound?
**A.** 3%

**Q.** Which results are given for `O=c1c(Cl)c(Cl)cnn1-c1ccc([N+](=O)[O-])cc1` [compound 103529]?
**A.** inhibition at 10 µM (H1650; NCI-H1650, primary screening, 10 μM compound in 1% DMSO (v/v), read-out: percentage inhibition H1650): -13%; inhibition at 10 µM (H1975; NCI-H1975, primary screening, 10 μM compound in 1% DMSO (v/v), read-out: percentage inhibition H1975): 97%; inhibition at 10 µM (H2030; NCI-H2030, primary screening, 10 μM compound in 1% DMSO (v/v), read-out: percentage inhibition H2030): 15%; inhibition at 10 µM (H3255; NCI-H3255, primary screening, 10 μM compound in 1% DMSO (v/v), read-out: percentage inhibition H3255): 1%

**Q.** For `O=C(Nc1ccc(I)cc1)c1ccc([N+](=O)[O-])o1` [compound 103710], which inhibition at 10 µM (H1650; NCI-H1650, read-out: PRIMARY HTS [%] H1650 (percentage inhibition)) is on record?
**A.** 33%

**Q.** What about the inhibition at 10 µM (H1975; NCI-H1975, read-out: PRIMARY HTS [%] H1975 (percentage inhibition)) of the same compound?
**A.** 17%

**Q.** What about the inhibition at 10 µM (H2030; NCI-H2030, read-out: PRIMARY HTS [%] H2030 (percentage inhibition)) of the same compound?
**A.** -5%

**Q.** And the inhibition at 10 µM (H3255; NCI-H3255, read-out: PRIMARY HTS [%] H3255 (percentage inhibition))?
**A.** 4%
